The assay deals with MDA-MB-468 breast. Nature of the assay: NCI tumour cell line growth inhibition, 48 h.

“And” between values parts separate entries of the source, which are not always exact repeats. Equal entries are not always repeated.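 Interpolation was linear, between the two tested concentrations surrounding the appropriate level; five concentrations were tested over 48 hours in 96-well plates. GI50: concentration for 50% inhibition of growth. TGI marks complete inhibition of growth.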

Regarding `N=c1ccc2nc3c(cc(N)c4ccccc43)oc-2c1`, the GI50 was 86.5 nM and the TGI worked out at 423 nM.

With `C[C@]12CC[C@@H](OC(=O)N(CCCl)N=O)C[C@@H]1CC[C@@H]1[C@@H]2CC[C@]2(C)C(=O)CC[C@@H]12`, the GI50 is 867 nM and the TGI came out at 12300 nM.

In the case of `CC(=O)c1cccc(-c2cccc(-c3ccn(CCN4CCOCC4)n3)c2)c1`, the GI50 was 15200 nM and the TGI is over 20000 nM.

As for `CNCCNc1nc2ccccc2c2c(=O)c3cc(F)ccc3sc12`, the GI50 is 1700 nM and the TGI turned out to be 3460 nM.

Consider `COc1cc2ncnc3c2cc1OCCCCCN(C)Cc1ccc(Br)cc1N3`, for which the GI50 was 46.3 nM and 39.3 nM; the TGI is 400 nM and 453 nM.

Take `COc1cc(/C=C2\CN(C(=O)CCN3CCC(=NO)CC3)C/C(=C\c3cc(OC)c(OC)c(OC)c3)C2=O)cc(OC)c1OC`: the GI50 is 342 nM and the TGI was found to be 1270 nM.

Consider `CCCCCCNC(=O)n1cc(F)c(=O)[nH]c1=O`, for which the GI50 is 10000 nM and the TGI was found to be 26300 nM.

In the case of `CC(C)(C)n1cc(-c2ccnc(NCCCNS(=O)(=O)c3ccc(Br)cc3)c2)c(-c2cccc(O)c2)n1`, the GI50 was 2100 nM and the TGI is 4800 nM.

With `Cc1cc2nc(-c3c(N)ncc(C#N)c3-c3ccc(Cl)cc3)[nH]c2cc1C`, the GI50 was 12400 nM and the TGI was 51500 nM.

As to `C[PH+](c1nc2ccccc2nc1[PH+](C)C(C)(C)C)C(C)(C)C.C[PH+](c1nc2ccccc2nc1[PH+](C)C(C)(C)C)C(C)(C)C.[Au+].[Cl-]` (centres undefined), the GI50 is 24.8 nM and the TGI was 90.4 nM.

As to `COc1ccc(/C=C\c2cc(OC)c(OC)c(OC)c2)c(NS(=O)(=O)c2ccc(Cl)cc2)c1O`, the GI50 was 36.7 nM and the TGI came to 15000 nM.

On to `Clc1ccc2c(c1)C(N1CCNCC1)=Nc1ccccc1O2`, for which the GI50 is 1220 nM and the TGI was 2480 nM.

Consider `CC(C(=O)O)c1ccc(-c2ccccc2)c(F)c1` (centres undefined), for which the GI50 is over 100000 nM and the TGI was over 100000 nM.

In the case of `CC12CC=CCC1CCC1C2CCC2(C)C(c3ccc(=O)oc3)CCC12O` (centres undefined), the GI50 was 276 nM and the TGI turned out to be 858 nM.

On to `CC[C@@]12C=CCN3CC[C@]4(c5cc(NC(=O)COc6cc(OCC(=O)Nc7cc8c(cc7OC)N(C)[C@H]7[C@@](O)(C(=O)OC)[C@H](OC(C)=O)[C@]9(CC)C=CCN%10CC[C@]87[C@@H]%109)cc7oc(-c8ccccc8)cc(=O)c67)c(OC)cc5N(C)[C@@H]4[C@](O)(C(=O)OC)[C@H]1OC(C)=O)[C@H]32`, for which the GI50 was 2250 nM and the TGI came out at 8870 nM.

Regarding `Oc1c(CN2CCCC2)cc(CSCc2ccccc2)c2cccnc12`, the GI50 was 1200 nM and the TGI turned out to be 3240 nM.

With `C/C(=C(/c1ccc(O)cc1)c1ccc(Cl)cc1)c1ccccc1`, the GI50 is 601 nM and the TGI was determined as 2020 nM.

On to `CCCCCCNC(=O)Oc1ccc(/C(=C(/C)Cc2ccc(OC)cc2)c2ccc(OCCN(C)C)cc2)cc1`, for which the GI50 was 5400 nM and the TGI is 10600 nM.

Consider `CCCCN(CCCC)CCc1c(C)cc(C)c(CCN(CCCC)CCCC)c1O`, for which the GI50 is 1830 nM and the TGI stood at 5510 nM.

Turning to `COC(=O)[C@H]1[C@H]2C[C@@H]3c4[nH]c5cc(OC)ccc5c4CCN3C[C@H]2C[C@@H](OC(=O)/C=C/c2cc(OC)c(OC)c(OC)c2)[C@@H]1OC`, the GI50 was 3270 nM and the TGI came out at 11600 nM.

`COc1ccc(NC(=O)n2nc(/C=C\c3ccc(O)c(OC)c3)cc2/C=C\c2ccc(O)c(OC)c2)cc1`: the GI50 is 3550 nM and the TGI was determined as 21600 nM.

For the molecule `Cn1cc(C2=C(c3cn(C)c4cc(N)ccc34)C(=O)NC2=O)c2ccccc21`, the GI50 was 1560 nM and the TGI was determined as 7970 nM.

In the case of `COc1cc2c(c(OC)c1OC)-c1ccc(O)c(=O)cc1[C@@H](NC(C)=O)CC2`, the GI50 was 4110 nM and the TGI was 27500 nM.

`CC1(C)[C@@H](OC(N)=O)C=C[C@]2(CO)[C@H]3CC[C@]4(C)[C@@H](c5ccc(=O)oc5)[C@@H](Cl)C[C@]4(O)C3=CC[C@@H]12`: the GI50 is 14.9 nM and the TGI worked out at 67.4 nM.

`Oc1c(Cl)cc(Cl)cc1Sc1cc(Cl)cc(Cl)c1O`: the GI50 is 2810 nM and 2590 nM; the TGI is 8850 nM and 7830 nM.

Turning to `CNCCNc1nc2ccccc2c2c(=O)c3cc(OC)ccc3sc12`, the GI50 was 1490 nM and the TGI was 3030 nM.

For the molecule `CCOC(=O)Nc1nc2cc(OCC)ccc2s1`, the GI50 is 2620 nM and the TGI was over 100000 nM.

Take `CC[C@]1(O)C[C@@H]2CN(CCc3c([nH]c4ccccc34)[C@@](C(=O)OC)(c3cc4c(cc3OC)N(C)[C@H]3[C@@](O)(C(N)=O)[C@H](O)[C@]5(CC)[C@@H]6C[C@@H]6CN6CC[C@]43[C@@H]65)C2)C1`: the GI50 was under 3.33 nM and the TGI was 262 nM.

Consider `COc1ccc([C@@H](O)c2cc(-c3ncnc4cc(N5CCOCC5)ccc34)c(F)cc2Cl)nn1`, for which the GI50 is 1690 nM and the TGI is 8260 nM.

On to `Cc1cnc(Nc2ccc(OCCN3CCCC3)cc2)nc1Nc1cccc(S(=O)(=O)NC(C)(C)C)c1`, for which the GI50 was 74.1 nM and 483 nM; the TGI is 792 nM and 3110 nM.

Turning to `NC(=O)c1c(NC(=O)c2ccccc2C(F)(F)F)sc2c1CCC(=O)C2`, the GI50 was 2250 nM and the TGI worked out at 6090 nM.

As for `CCCCNC(=O)Oc1ccc(/C(=C(/CC)Cc2ccccc2)c2ccc(OCCN3CCCCCC3)cc2)cc1`, the GI50 is 21500 nM and the TGI was determined as 46900 nM.

Consider `CCN1C(=O)N(CC)C2SC(N/N=C/c3ccc(F)cc3)=NC21` (centres undefined), for which the GI50 is 400 nM.

Consider `CC[C@H](Nc1nc(N)nc(C2CC2)c1C#N)c1nc2cccc(NCc3ccc(C(=O)NO)cc3)c2c(=O)n1-c1ccccc1`, for which the GI50 was 1730 nM and the TGI amounted to 4870 nM.

On to `CC(=O)c1cc(-c2ccccc2N)n(-c2ccc3c(c2)OCO3)c1C`, for which the GI50 is 50.7 nM and the TGI was over 72100 nM.

For the origin of these results see PubChem BioAssay (NCI).
